Test results as given in patent publication US5591431A, “Enhancement of clot lysis” (G.D. Searle & Co., priority 1990, dated 1997).
Values joined by “and” are separate entries in the source; they are usually repeats but may differ in a detail not shown here. Equal entries are not always repeated. Where two headings read alike, the source gives them in different places. Peptide text beside a SMILES is read from it.

Legend:
[1] = test system: jugular vein clot (tPA mediated clot lysis); test: Rabbit jugular vein thrombolysis model II: peptide coinfused with tPA; assay type: in vivo, rabbit (New Zealand White); conditions: tPA alone 0.125 mg/kg; standard curve 2 conditions (17% background lysis)
Protocol: In a second experiment the enhancer peptide was administered with tPA. […] Clot lysis standard curves were performed for varying doses of tPA from […] mouse cells (Invitron). […] To compare the data, standard curves were established for each procedure. A linear dose dependency is observed with both sets of data. […] The chosen dose of tPA (0.125 mg/kg) for the peptide experiments gave 17% and 27% lysis, respectively, for the two sets of experiments. This dose was chosen as the baseline for the peptide study so that an increase in clot lysis would be observable. Increases in clot lysis were evaluated by two methods. In the first method, fold increases in % clot lysis were calculated as follows: [formula] In the second method, the equivalent dose of tPA necessary to obtain the clot lysis observed with tPA and peptide was extrapolated from the appropriate standard curve. Fold increase in tPA dose was determined as follows: [formula] A dose response study was performed with the peptides using a constant tPA dose (FIG. 5). Three doses are tested: 1.85 mg/kg, 0.185 mg/kg and 0.0185 mg/kg, which correspond to molar ratios of peptide to tPA of 385, 38.5, and 3.85, respectively with weight ratios of enhancer peptide to tPA of 15:1, 1.5:1, and 0.15:1 respectively. […]

[2] = test system: α-2 antiplasmin; test: Antiplasmin assay (plasmin cleavage of S2251) in rabbit plasma during clot lysis experiments; assay type: in vivo
Protocol: Antiplasmin levels were monitored by the antiplasmin assay (Helena Labs, Beaumont, Tex.). This assay measures inhibition of plasmin cleavage of a chromogenic substrate S2251 (H-D Valyl-Leucyl-L-Lysine-p-nitroanilide dihydrochloride) obtained from Helena Labs. A typical reaction mixture contains 215 μL of 50 mM Tris buffer pH 7.4, 110 mM NaCl, 5 μL rabbit plasma, 15 μL plasmin (1 unit), and 15 μL of substrate S2251 (3.5 mM stock) in a total reaction volume of 250 μL. The generation of p-nitroaniline product is monitored at […].

[3] = test system: isolated clot in the rabbit jugular vein (tPA mediated clot lysis); test: Rabbit jugular vein thrombolysis model I: peptide added during clot formation, then tPA infusion; assay type: in vivo, rabbit (New Zealand White); conditions: tPA alone 0.125 mg/kg infused over 4 h; standard curve 1 conditions
Protocol: Two independent studies were performed using the rabbit jugular vein thrombolysis model described in D. Collen et al., J. Clin. Invest. 71:368 (1983), with minor modifications. The enhancer peptide was administered during clot formation prior to tPA administration in one set of experiments with the rabbit jugular vein thrombolysis model. The enhancer peptide produced a five-fold increase in the clot lysis obtained from infusion of 0.125 mg tPA/kg, which corresponds to the lysis observed by a six-fold increase in tPA dose.
Clot lysis standard curves were performed for varying doses of tPA from C127 mouse cells (Invitron). […] To compare the data, standard curves were established for each procedure. A linear dose dependency is observed with both sets of data. […] Increases in clot lysis were evaluated by two methods. In the first method, fold increases in % clot lysis were calculated as follows: [formula] […] Fold increase in tPA dose was determined as follows: [formula] […]
An isolated clot was formed in the rabbit jugular vein using bovine thrombin (Calbiochem, San Diego, Calif.) and ^125 I fibrinogen (Amersham, Arlington Heights, Ill.). […] Blood samples were taken every hour from the femoral vein, and clot lysis was measured by comparison of residual radioactivity in the clot at the end of 4 1/2 hours. […]

[4] = test system: fibrinogen; test: Fibrinogen level in rabbit plasma by thrombin clotting time during clot lysis experiments; conditions: enhancer peptide dose 0 mg/kg (tPA only)
Protocol: (§1) Fibrinogen concentration in dilute plasma is inversely proportional to the thrombin clotting of the plasma (S. Borgstrom, Acta Chir. Scand. 90:419 (1945); A. Clauss, Acta Haemat, 17:273 (1957); K. Jacobson, Scand. J. Clin. Lab. Med. 7:7 (1955). Plasma was diluted 1:10 and 200 μL of this solution added to 100 μL (10 units) of bovine thrombin. Clotting time was measured on a clinical fibrometer, and fibrinogen levels determined as mg/dL plasma.

[5] = test system: fibrinogen; conditions: rabbit, in vivo
Protocol: as §1

[6] = test system: tPA antigen; test: tPA antigen ELISA in rabbit plasma during clot lysis experiments; assay type: in vivo; conditions: with tPA
Protocol: Samples of rabbit plasma were assayed by a commercial ELISA assay from American Diagnostic Inc. (ADI), New York, N.Y. Several modifications are made to the ADI protocol, which include using 10 μL of untreated plasma sample to minimize background and spiking the standard curve with 10 μL rabbit plasma to equalize any salt effect that might result. The assay was standardized with mouse C127 cell tPA (Invitron, St. Louis, Mo.).
The tPA antigen levels were monitored hourly to determine if the increase in clot lysis is due to an extended tPA half-life. […] Antigen levels of tPA decreased after infusion is stopped, indicating normal clearance of the exogenous tPA.

Compound	clot lysis [1]	α-2 Antiplasmin (% of baseline) ([2]; enhancer peptide dose 0 mg/kg (tPA only))	clot lysis [3]	Fibrinogen (% of baseline) [4]	α-2 antiplasmin levels ([2]; all rabbit experiments, including those with increased clot lysis from enhancer peptide)	α-2 Antiplasmin (% of baseline) ([2]; enhancer peptide dose 0.0185 mg/kg, with tPA)	α-2 Antiplasmin (% of baseline) ([2]; enhancer peptide dose 0.185 mg/kg, with tPA)	α-2 Antiplasmin (% of baseline) ([2]; enhancer peptide dose 1.85 mg/kg, with tPA)	α-2 Antiplasmin (% of baseline) ([2]; enhancer peptide dose 9.25 mg/kg, with tPA)	Fibrinogen levels [5]	Fibrinogen (% of baseline) ([5]; 0.0185 mg/kg)	Fibrinogen (% of baseline) ([5]; 0.185 mg/kg)	Fibrinogen (% of baseline) ([5]; 1.85 mg/kg)	Fibrinogen (% of baseline) ([5]; 9.25 mg/kg)	Fibrinogen (% of baseline) ([5]; 18.5 mg/kg)	tPA Antigen 30 min. after Infusion ([6]; enhancer peptide dose 0.0185 mg/kg)	tPA Antigen 30 min. after Infusion ([6]; enhancer peptide dose 0.185 mg/kg)
tPA: tissue plasminogen activator from C127 mouse cells (Invitron Lot #76-001-31395), control tPA for this study	27%	94 +/- 2 % of baseline	17% and 16 +/- 1%	100 % of baseline	–	–	–	–	–	–	–	–	–	–	–	–	–
CC[C@H](C)[C@H](NC(=O)[C@H](Cc1ccccc1)NC(=O)[C@@H](NC(=O)[C@H](CC(C)C)NC(=O)[C@H](Cc1ccccc1)NC(=O)[C@@H]1CCCN1C(=O)[C@H](CCCNC(=N)N)NC(=O)[C@H](CC(N)=O)NC(=O)[C@H](C)NC(=O)[C@H](CCCCN)NC(=O)[C@H](Cc1ccccc1)NC(=O)[C@@H](NC(=O)[C@@H](NC(=O)[C@H](CCCNC(=N)N)NC(=O)[C@H](CC(N)=O)NC(=O)[C@@H]1CCCN1C(=O)[C@H](CC(N)=O)NC(=O)[C@H](CC(C)C)NC(=O)[C@H](CO)NC(=O)[C@H](CCCNC(=N)N)NC(=O)CNC(=O)[C@H](C)N)C(C)C)[C@@H](C)O)C(C)C)C(=O)O [enhancer peptide] (H-AGRSLNPNRVTFKANRPFLVFI-OH)	–	–	–	–	did not change	87 +/- 7 % of baseline	96 +/- 1 % of baseline	86 +/- 8 % of baseline	92 +/- 2 % of baseline	did not change	100 % of baseline	100 +/- 1 % of baseline	100 +/- 1 % of baseline	91 % of baseline	91 +/- 13 % of baseline	0 mg/mL	0 mg/mL
